Test results published in PubChem BioAssay AID1918991 (Molecular Pharmacology Branch, DTP, NCI, 2023).

Tested on: 186277-243-T-J2-PDC complex spheroid growth
Experiment: Anticancer human tumor 186277-243-T-J2-PDC patient-derived colon adenocarcinoma cell line growth inhibition [AhR]
Settings: for IC50: curve of first compound; for viability, T/C: stronger effect = lower value; active = viability on the fitted dose curve at most 10% of control; inactive = the rest
From the text: Multicellular complex tumor spheroid response to aryl hydrocarbon receptor antagonists in combination with a variety of drugs and investigational agents in selected tumor cell lines
The current study was undertaken to assess response to aryl hydrocarbon receptor antagonists in combination with standard-of-care drugs and investigational agents in solid tumor complex spheroid models. Complex spheroids include a stromal component modeled by human endothelial cells (HUVEC) and fibroblasts modeled by human mesenchymal stem cells (MSCs). The concentration ranges selected for each drug and investigational agent were based upon clinically achievable concentrations if the clinical Cmax of the agent was known.
Compounds. The drugs and investigational agents: BAY 2416964 (NSC825713), GNF351 (NSC835774), CH-223191 (NSC835775), CPI-455 (NSC825282), aza-TdCyd (NSC777586), decitabine (NSC127716), belinostat (NSC758774), entinostat (NSC756642), pevonedistat (NSC761192), tazemetostat (NSC777109), talazoparib (NSC765396), olaparib (NSC753686), selinexor (NSC780203), nedisertib (M3814, NSC802822), bortezomib (NSC756655), venetoclax (NSC766270), doxorubicin (NSC123127), elimusertib (BAY189344, NSC800525), ceralasertib (AZD6738, NSC777638), TAK-243 (NSC785004), alisertib (NSC759677), etoposide (NSC141540), topotecan (NSC609699), eribulin (NSC707389), gemcitabine (NSC613327), carboplatin (NSC241240), cisplatin (NSC119875), and SN-38 (NSC673596) were obtained from the National Cancer Institute (NCI) Developmental Therapeutics Program Chemical Repository (32). The FDA-approved anticancer drug set is available from the Developmental Therapeutics Program at https://dtp.cancer.gov/organization/dscb/obtaining/available plates.htm. […] The stock solutions were prepared in dimethyl sulfoxide (DMSO, Sigma-Aldrich, St. Louis, MO, cat. D2650), except for the platinum compounds which were prepared in saline (Quality Biological, Gaithersburg, MD, cat. 114-055-101), at 800-fold the tested concentration and stored at -70 degrees C prior to their use. All drugs and investigational agents were tested over a range starting from a high concentration at or near the clinical Cmax and decreasing in half-log increments. If the clinical Cmax for an agent had not been determined, the highest concentration tested was 10 microM (Table 1).
Cell Culture. All cells were maintained in an incubator at 37 degrees C and 5% CO2 with 95% humidity. The PDC lines were cultured according to standard operating procedures established by the NCI PDMR (https://pdmr.cancer.gov). Briefly, all PDCs were thawed and cultured in Matrigel-coated flasks prepared with a working solution of 1X Ham's F-12 nutrient mix, without supplementation (Invitrogen, Waltham, MA, cat. 11765054), 100 U/mL penicillin-streptomycin (Invitrogen, cat. 15140122), and 2.5% Matrigel (Corning Inc., Corning, NY, cat. 354248) for the first three passages. All PDCs were cultured in complete DMEM/F-12 media containing advanced DMEM/F-12 (Invitrogen, cat. 12634028), 4.9% defined fetal bovine serum, heat inactivated (HyClone Laboratories Inc., Logan, UT, cat. SH30070.03HI), 389 ng/mL hydrocortisone (Sigma-Aldrich, cat. H4001), 9.7 ng/mL human EGF recombinant protein (Invitrogen, cat. PHG0313), 23.4 microg/mL adenine (Sigma-Aldrich, cat. A2786), 97.3 U/mL penicillin-streptomycin (Invitrogen, cat. 15140122), 1.9 mM L-glutamine (Invitrogen, cat. 25030081), and 9.7 microM Y-27632 dihydrochloride (Tocris Bioscience, Bristol, United Kingdom, cat. 1254). The PDCs were cultured in complete DMEM/F12 media without 10 microM Y-27632 dihydrochloride for at least two passages prior to the screen. The established cell lines NCI-H1341 and […] were cultured in DMEM/F-12, HEPES (Invitrogen, cat. 11330032), 5% defined fetal bovine serum (HyClone Laboratories Inc., cat. SH30070.03), ITS premix universal culture supplement [insulin (5 microg/mL), transferrin (5 microg/mL), and selenious acid (5 ng/mL)] […]

[1] = second compound 0.1 µM, first compound 0.0316 µM
[2] = second compound 0.1 µM, first compound 0.1 µM
[3] = second compound 0.1 µM, first compound 0.316 µM
[4] = second compound 0.1 µM, first compound 1 µM
[5] = second compound 0.1 µM, first compound 3.16 µM
[6] = second compound 0.1 µM, first compound 10 µM
[7] = second compound 0.316 µM, first compound 0.0316 µM
[8] = second compound 0.316 µM, first compound 0.1 µM
[9] = second compound 0.316 µM, first compound 0.316 µM
[10] = second compound 0.316 µM, first compound 1 µM
[11] = second compound 0.316 µM, first compound 3.16 µM
[12] = second compound 0.316 µM, first compound 10 µM
[13] = second compound 1 µM, first compound 0.0316 µM
[14] = second compound 1 µM, first compound 0.1 µM
[15] = second compound 1 µM, first compound 0.316 µM
[16] = second compound 1 µM, first compound 1 µM
[17] = second compound 1 µM, first compound 3.16 µM
[18] = second compound 1 µM, first compound 10 µM
[19] = second compound 3.16 µM, first compound 0.0316 µM
[20] = second compound 3.16 µM, first compound 0.1 µM
[21] = second compound 3.16 µM, first compound 0.316 µM
[22] = second compound 3.16 µM, first compound 1 µM
[23] = second compound 3.16 µM, first compound 3.16 µM
[24] = second compound 3.16 µM, first compound 10 µM
[25] = second compound 10 µM, first compound 0.0316 µM
[26] = second compound 10 µM, first compound 0.1 µM
[27] = second compound 10 µM, first compound 0.316 µM
[28] = second compound 10 µM, first compound 1 µM
[29] = second compound 10 µM, first compound 3.16 µM
[30] = second compound 10 µM, first compound 10 µM
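Also: spheroids exposed to compounds for seven days before the viability read.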
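For viability, T/C in this document: luminescent signal used as a stand-in for viable cell amount; 100% = DMSO vehicle control wells.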

CC(C)CC(NC(=O)C(Cc1ccccc1)NC(=O)c1cnccn1)B(O)O (stereo not given) + CC(CO)NC(=O)c1cc(-c2ccc(Cl)cc2)nn(-c2cnn(C)c2)c1=O
5.37 nM: IC50 (second compound 10 µM)
active: viability, T/C (second compound 0.1 µM, first compound 0.00949 µM) 3.22% | viability, T/C (second compound 0.1 µM, first compound 0.03 µM) 0.06% | viability, T/C (second compound 0.1 µM, first compound 0.0949 µM) 0.07% | viability, T/C (second compound 0.1 µM, first compound 0.3 µM) 0.11% | viability, T/C (second compound 0.316 µM, first compound 0.00949 µM) 3.12% | viability, T/C (second compound 0.316 µM, first compound 0.03 µM) 0.03% | viability, T/C (second compound 0.316 µM, first compound 0.0949 µM) 0.05% | viability, T/C (second compound 0.316 µM, first compound 0.3 µM) 0.11% | viability, T/C (second compound 1 µM, first compound 0.00949 µM) 4.62% | viability, T/C (second compound 1 µM, first compound 0.03 µM) 0.06% | viability, T/C (second compound 1 µM, first compound 0.0949 µM) 0.04% | viability, T/C (second compound 1 µM, first compound 0.3 µM) 0.11% | viability, T/C (second compound 3.16 µM, first compound 0.00949 µM) 2.71% | viability, T/C (second compound 3.16 µM, first compound 0.03 µM) 0.06% | viability, T/C (second compound 3.16 µM, first compound 0.0949 µM) 0.05% | viability, T/C (second compound 3.16 µM, first compound 0.3 µM) 0.12% | viability, T/C (second compound 10 µM, first compound 0.00949 µM) 2.68% | viability, T/C (second compound 10 µM, first compound 0.03 µM) 0.15% | viability, T/C (second compound 10 µM, first compound 0.0949 µM) 0.15% | viability, T/C (second compound 10 µM, first compound 0.3 µM) 0.23%
5.95 nM: IC50 (second compound 0.1 µM)
inactive: viability, T/C (second compound 0.1 µM, first compound 0.000949 µM) 117% | viability, T/C (second compound 0.1 µM, first compound 0.003 µM) 120% | viability, T/C (second compound 0.316 µM, first compound 0.000949 µM) 121% | viability, T/C (second compound 0.316 µM, first compound 0.003 µM) 117% | viability, T/C (second compound 1 µM, first compound 0.000949 µM) 110% | viability, T/C (second compound 1 µM, first compound 0.003 µM) 132% | viability, T/C (second compound 3.16 µM, first compound 0.000949 µM) 114% | viability, T/C (second compound 3.16 µM, first compound 0.003 µM) 118% | viability, T/C (second compound 10 µM, first compound 0.000949 µM) 96.3% | viability, T/C (second compound 10 µM, first compound 0.003 µM) 100%
6.06 nM: IC50 (second compound 1 µM)
5.9 nM: IC50 (second compound 0.316 µM)
5.87 nM: IC50 (second compound 3.16 µM)

COc1cc(Nc2ncc3c(n2)-c2ccc(Cl)cc2C(c2c(F)cccc2OC)=NC3)ccc1C(=O)O + CC(CO)NC(=O)c1cc(-c2ccc(Cl)cc2)nn(-c2cnn(C)c2)c1=O
inactive: viability, T/C [1] 27.6% | viability, T/C [2] 22.9% | viability, T/C [3] 21.5% | viability, T/C [4] 20.5% | viability, T/C [5] 22.3% | viability, T/C [6] 27.9% | viability, T/C [7] 26.1% | viability, T/C [8] 23.8% | viability, T/C [9] 22.4% | viability, T/C [10] 18.9% | viability, T/C [11] 22.7% | viability, T/C [12] 22.7% | viability, T/C [13] 30.3% | viability, T/C [14] 22% | viability, T/C [15] 21.9% | viability, T/C [16] 20.7% | viability, T/C [17] 22.2% | viability, T/C [18] 25% | viability, T/C [19] 26.1% | viability, T/C [20] 24.2% | viability, T/C [21] 20.7% | viability, T/C [22] 19.3% | viability, T/C [23] 23% | viability, T/C [24] 26% | viability, T/C [25] 23.6% | viability, T/C [26] 22.3% | viability, T/C [27] 21.5% | viability, T/C [28] 21.2% | viability, T/C [29] 23.4% | viability, T/C [30] 26.1%
< 31.6 nM: IC50 (second compound 0.1 µM) | IC50 (second compound 0.316 µM) | IC50 (second compound 1 µM) | IC50 (second compound 3.16 µM) | IC50 (second compound 10 µM)

O=C(C=Cc1cccc(S(=O)(=O)Nc2ccccc2)c1)NO + CC(CO)NC(=O)c1cc(-c2ccc(Cl)cc2)nn(-c2cnn(C)c2)c1=O
248 nM: IC50 (second compound 3.16 µM)
285 nM: IC50 (second compound 1 µM)
164 nM: IC50 (second compound 10 µM)
inactive: viability, T/C [1] 101% | viability, T/C [2] 94.5% | viability, T/C [3] 50.5% | viability, T/C [7] 92.5% | viability, T/C [8] 83.8% | viability, T/C [9] 54.3% | viability, T/C [10] 10.1% | viability, T/C [13] 86.1% | viability, T/C [14] 80.5% | viability, T/C [15] 46.7% | viability, T/C [16] 10.7% | viability, T/C [19] 91.5% | viability, T/C [20] 77.7% | viability, T/C [21] 43.4% | viability, T/C [25] 70.2% | viability, T/C [26] 58.5% | viability, T/C [27] 37.2%
347 nM: IC50 (second compound 0.316 µM)
324 nM: IC50 (second compound 0.1 µM)
active: viability, T/C [4] 9.56% | viability, T/C [5] 1.99% | viability, T/C [6] 0.31% | viability, T/C [11] 2% | viability, T/C [12] 0.32% | viability, T/C [17] 1.43% | viability, T/C [18] 0.32% | viability, T/C [22] 8.38% | viability, T/C [23] 1.57% | viability, T/C [24] 0.28% | viability, T/C [28] 6.55% | viability, T/C [29] 1.99% | viability, T/C [30] 0.42%
